One may read the EC50 as the concentration that produces a half-maximal response. Low values mean an effect from little substance, high ones a need for much substance.

The results in this text go back to US8404848B2, “Derivatives of imidazo[1,2-a]pyridine-2-carboxamides, preparation method thereof and use of same in therapeutics” (Sanofi, priority 2006, dated 2013).

One assay concerns the target T1, mouse Nurr1 receptor (Mus musculus, UniProt Q06219).
T1 construct: On a cell line (N2A) endogenously expressing the mouse Nurr1 receptor; host or cells: Neuro-2A (N2A) mouse neuroblastoma cells stably transfected with 8NBRE-luciferase
Description: In vitro activity on N2A cells (NBRE-luciferase reporter). The following applies: N2A cell line endogenously expressing mouse Nurr1, stably transfected with 8NBRE-luciferase; 24 hours incubation. It is filed as cell-based. As for the experimental part:
Evaluation of the In Vitro Activity on N2A Cells
On a cell line (N2A) endogenously expressing the mouse Nurr1 receptor and stably transfected with the NOT binding response element (NBRE) coupled to the luciferase reporter gene. The EC50 values are between 0.01 and 1000 nM. The assays were carried out according to the procedure described below.
The Neuro-2A cell line comes from a standard commercial source (ATCC). The Neuro-2A clone was obtained, from a spontaneous tumor originating from an A albino mouse strain, by R. J Klebe et al. This Neuro-2A line is subsequently stably transfected with 8NBRE-luciferase. The N2A-8NBRE cells are cultured until confluence in 75 cm^2 culture flasks containing DMEM supplemented with 10% of fetal calf serum, 4.5 g/l of glucose and 0.4 mg/ml of geneticin. After a week of culture, the cells are recovered with 0.25% trypsin for 30 seconds and then resuspended in DMEM without phenol red, containing 4.5 g/l of glucose and 10% of Hyclone delipidized serum, and deposited into transparent-bottom 96-well white plates. The cells are deposited at a rate of 60 000 per well in 75 μl for 24 hours before the addition of the products. The products are applied in 25 μl and incubated for a further 24 hours. On the day of the measurement, an equivalent volume (100 μl) of Steadylite is added to each well and then left for a period of 30 minutes in order to obtain complete cell lysis and maximum signal production. The plates are subsequently measured in a luminescence counter for microplates after having been sealed with an adhesive film. The products are prepared in the form of a stock solution at 10^−2M and then diluted in 100% of DMSO. Each product concentration is prediluted in culture medium before incubation with the cells, thus containing 0.625% final concentration of DMSO.
(In general: Reporter assays use an easily measured gene product as a stand-in for the process of interest.)

The next assay has as its system human NOT receptor. Description: Binding to the human NOT receptor by SPR (surface plasmon resonance). The following applies: Biacore S51, immobilized GST-NOT whole protein and NOT ligand-binding domain, 3.75 to 0.1 μM, 4° C. As for the experimental part:
Evaluation of the Binding to the Human NOT Receptor
The direct binding between compounds of the invention and the human NOT receptor was evaluated using SPR (surface plasmon resonance) technology. In this assay, the protein is immobilized covalently at the matrix and the molecule to be studied is injected into the chamber comprising the sensor chip. The signal is directly proportional to the amount of product bound to the protein. The binding assays were carried out in a Biacore S51 instrument (Biacore Inc., Piscataway, N.J.). The GST-NOT (NOT-FL) whole protein was provided by Invitrogen (PV3265). The NOT ligand-binding domain (His-Thr-NOT 329-598) was expressed and purified as described in Nature, 423, 555-560. The two proteins, diluted to a concentration of 20 μg/ml in an acetate buffer, pH 5.0, containing 5 mM of DTT, were immobilized on a carboxymethyl 5′ dextran surface (CM5 sensor chip, Biacore Inc.) by amine coupling according to the protocol recommended by Biacore, elution being carried out with an HBS-N buffer (10 mM HEPES, 0.15 M NaCl, […], pH 7.4). Approximately 10 000-15 000 resonance units (RU) of the proteins are captured on the surface of the CM5 sensor chip. […] The dissociation was recorded for 5 minutes without any other procedure for regenerating the surface. […]
For orientation: SPR reads the build-up and loss of mass on a sensor chip optically.

T1 sequence (Q06219 whole entry): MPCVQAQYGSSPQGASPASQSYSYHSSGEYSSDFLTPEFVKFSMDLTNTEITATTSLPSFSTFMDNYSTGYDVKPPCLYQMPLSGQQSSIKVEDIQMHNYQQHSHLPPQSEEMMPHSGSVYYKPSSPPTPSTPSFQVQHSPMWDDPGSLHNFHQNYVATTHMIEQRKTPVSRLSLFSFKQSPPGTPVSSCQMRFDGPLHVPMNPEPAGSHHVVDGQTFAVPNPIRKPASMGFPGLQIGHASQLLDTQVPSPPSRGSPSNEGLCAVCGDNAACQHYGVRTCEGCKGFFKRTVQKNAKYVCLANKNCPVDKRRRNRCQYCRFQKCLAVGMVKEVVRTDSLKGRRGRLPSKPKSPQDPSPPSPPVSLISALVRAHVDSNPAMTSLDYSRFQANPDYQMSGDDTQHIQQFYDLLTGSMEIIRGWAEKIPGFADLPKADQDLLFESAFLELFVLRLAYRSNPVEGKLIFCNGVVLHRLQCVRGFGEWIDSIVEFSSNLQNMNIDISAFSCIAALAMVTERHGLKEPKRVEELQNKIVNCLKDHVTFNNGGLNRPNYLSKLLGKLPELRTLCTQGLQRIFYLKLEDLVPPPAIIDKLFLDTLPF

For `CC(C)(O)c1ccc2nc(C(=O)Nc3ccccc3)cn2c1` [Compound 4, 6-(1-Hydroxy-1-methylethyl)-N-phenylimidazo[1,2-a]pyridine-2-carboxamide], at mouse Nurr1 receptor, the midpoint of the response, the EC50, lay at 0.66 nM.
Turning to `O=C(Nc1ccccc1)c1cn2cc(-c3ccccc3)ccc2n1` [Compound 7, N,6-Diphenylimidazo[1,2-a]pyridine-2-carboxamide], the concentration giving a half-maximal response (EC50) at mouse Nurr1 receptor stood at 0.9 nM. Moreover, the “affinity (direct binding, classified by maximum binding level and kinetic parameters)” value with human NOT receptor was “moderate”.
The matching figures for `Cc1ccc2nc(C(=O)Nc3ccccc3)cn2c1` [Compound 19, 6-Methyl-N-phenylimidazo[1,2-a]pyridine-2-carboxamide]: 0.6 nM and “low”.
At mouse Nurr1 receptor, `COc1ccc2nc(C(=O)Nc3ccccc3)cn2c1` [Compound 29, 6-Methoxy-N-phenylimidazo[1,2-a]pyridine-2-carboxamide] displayed a half-maximal effective concentration (EC50) of 1.3 nM. In other words, the single-digit nanomolar range.
Still for that read-out and setting: under `C=C(C)c1ccc2nc(C(=O)Nc3ccccc3)cn2c1` [Compound 32, 6-Isopropenyl-N-phenylimidazo[1,2-a]pyridine-2-carboxamide] stands 0.06 nM.
On the same count and under the same terms, the same measure for `Cc1ccc2nc(C(=O)Nc3ccccc3)cn2c1C` [Compound 43, 5,6-Dimethyl-N-phenylimidazo[1,2-a]pyridine-2-carboxamide]: 0.3 nM; for `CN(C)c1ccc2nc(C(=O)Nc3cc(F)ccc3F)cn2c1` [Compound 58, N-(2,5-Difluorophenyl)-6-(dimethylamino)imidazo[1,2-a]pyridine-2-carboxamide]: 1.3 nM; for `O=C(Nc1ccccc1F)c1cn2cc(-c3cccc(CO)c3)ccc2n1` [Compound 67, N-(2-Fluorophenyl)-6-[3-(hydroxymethyl)phenyl]imidazo[1,2-a]pyridine-2-carboxamide]: 0.7 nM.
Still for that read-out and setting: under `O=C(Nc1ccccc1)c1cn2cc(N3CCC3)ccc2n1` [Compound 70, 6-(Azetidin-1-yl)-N-phenylimidazo[1,2-a]pyridine-2-carboxamide] stands 0.16 nM.
